In patent US20250025451A1, “TREATMENT OF CANCER WITH KDM4 INHIBITORS” (Celgene Corporation, priority 2021, published 2025):
pIC50: −log10 of the molar value.

How the values were obtained:
[1] = tested on: COH70 patient-derived triple negative breast cancer xenograft; assay: in vivo efficacy, COH70 patient-derived triple negative breast cancer xenograft model; settings: COH70 TNBC PDX; for % TGI: Day 36; for Median Tumor Volumes Diff.: Day 36 minus Day 1
Description: The therapeutic in vivo efficacy of Compound 1 was evaluated in SU60 colorectal cancer, KYSE-150 esophageal cancer, COH70 triple-negative breast cancer, GXA-3036 gastric adenocarcinoma and OCI-LY19 Diffuse Large B-Cell Non-Hodgkin's Lymphoma xenograft models. In all studies, efficacy was determined based on percent tumor growth inhibition (TGI), differences in mean tumor growth, and statistical assessment of differences in net tumor volume distributions on the day of TGI analysis between control and treated animals. Tolerability was assessed based on differences in mean body weights between control and treated animals over the course of the study.
The in vivo therapeutic efficacy and tolerability of Compound 1, administered orally as the free acid form in a PBS vehicle plus two equivalents of NaOH (final pH 10), was evaluated in a dose range study using the COH70 TNBC PDX model established in female NSG mice. Each mouse was inoculated subcutaneously in the abdomen with 2×10^6 COH70 tumor cells (0.2 ml) suspended in Matrigel. When the average tumor size reached ˜107 mm3, test animals were randomized into 5 groups consisting of 9 mice per group and treatments were initiated. Control mice received PBS (pH 10) vehicle PO QDx36. Treated mice received Compound 1 (dissolved in PBS+2 equivalents of NaOH, final pH 10) PO at 50, 40, 25, or 12.5 mg/kg QDx36. TGI was determined on Day 36 as (1−Difftreated/Diffcontrol)×100. Individual tumors were measured twice weekly in two dimensions using a caliper, and the tumor volumes (TV) in mm3 were calculated using the formula: TV=0.5 (l×w×h), where l, w, and h are the tumor length, width, and height in mm, respectively. Mean tumor volumes±SEM were calculated and plotted versus days of dosing (left panel). Body weights were measured twice weekly. Body weights±SEM were calculated and plotted versus days of dosing (right panel).

[2] = tested on: PNUTS mRNA; assay: inhibition of PNUTS gene expression by qPCR in MDA-MB-231 cells; format: cell-based; settings: Homo sapiens, 24 hours
Description: In a study of the inhibitory effects of Compound 1 on the gene expression of PNUTS, MDA-MB-231 cells were treated for 24 hours and expression levels of PNUTS mRNA in response to Compound 1 treatment were measured by qPCR. The inhibition of PNUTS mRNA was quantified by calculating mean percent change in PNUTS gene expression following the Compound 1 treatment relative to the DMSO-treated control and IC50 value was calculated as concentration where inhibition was half-maximal. The IC50 value was 0.007 μM.

[3] = tested on: PA0143F patient-derived pancreatic cancer organoid model; assay: organoid colony formation assay, PA0143F; format: cell-based, human
Description: (§1) The IC50 values for Compound 1 inhibition of colony formation and viability were determined for the patient-derived colon cancer organoid models: SU60, T002C, SU62, SU34, SU103, T03SC, and SU106, patient-derived pancreatic cancer organoid models PA016SF, PA0143F, T016P, and T028P, and a patient-derived breast cancer organoid model FS5S3.
(§2) Colony formation and viability assays were performed in multiwell plates seeded with organoids using an in vitro culture system composed of a Matrigel layer, media containing a defined set of growth factors, and co-culture with Wnt3 A-secreting mouse embryonic fibroblasts. Assays were initiated by adding either DMSO as a negative control, or an inhibitor panobinostatat 100×IC50 concentration as a positive control, or serially diluted Compound 1. The cultures were incubated for 168 or 144 hours after which the number of viable organoids in each test well was assessed respectively using one of two detection methods: CTG or staining with calcein-AM followed by imaging and colony counting. Colony count or viability of cells treated with compound 1 was expressed as a percent of the negative control. Aggregated Percent of Control values were plotted against the corresponding Compound 1 concentration and the absolute IC50 value was determined from a non-linear regression curve as the concentration where inhibition was 50% of the control.

[4] = tested on: SU60 patient-derived colon cancer organoid model; assay: organoid colony formation and viability assay, SU60; format: cell-based, human
Description: as §1, §2
The colony formation inhibition assays were performed in multiwell plates seeded with SU60 organoids. The cultures were incubated for 168 hours after which the number of colonies was assessed by staining with calcein AM followed by imaging and colony counting. Colony counts were expressed as a percent of the negative control and aggregated Percent of Control values were plotted against the corresponding Compound 1 concentration. A curve was fitted using non-linear regression.

[5] = tested on: human cancer cell lines; assay: apoptosis in human cancer cell lines; format: cell-based

With `CC(C)c1ccc(N(C)c2ccc3c(c2)OCC[C@H]3CNc2cnccc2C(=O)O)cc1` [Compound 1, 3-({[(4R)-7-{methyl[4-(propan-2-yl)phenyl]amino}-3,4-dihydro-2H-1-benzopyran-4-yl]methyl}amino)pyridine-4-carboxylic acid] the “tolerability (dose-dependent mean body weight changes)” value ([1]; female NSG mice, 12.5-50 mg/kg PO QD x36) was “well-tolerated”, the “mean body weight loss” value ([1]; female NSG mice, PO QD x36, over the course of the study) was 6.5% and the “Median Tumor Volumes Day 36” value ([1]; female NSG mice, free acid 12.5 mg/kg PO QD x36) was 685 mm^3. The “Median Tumor Volumes Day 36” value ([1]; female NSG mice, free acid 25 mg/kg PO QD x36) was 524 mm^3, the “Median Tumor Volumes Day 36” value ([1]; female NSG mice, free acid 40 mg/kg PO QD x36) was 282 mm^3 and the “Median Tumor Volumes Day 36” value ([1]; female NSG mice, free acid 50 mg/kg PO QD x36) was 295 mm^3. The “% TGI” value ([1]; 12.5 mg/kg PO QD x36) was 57%, the “Median Tumor Volumes Diff.” value ([1]; 12.5 mg/kg PO QD x36) was 581 mm^3 and the “% TGI” value ([1]; 25 mg/kg PO QD x36) was 68%. The “Median Tumor Volumes Diff.” value ([1]; 25 mg/kg PO QD x36) was 424 mm^3, the “% TGI” value ([1]; 40 mg/kg PO QD x36) was 86% and the “Median Tumor Volumes Diff.” value ([1]; 40 mg/kg PO QD x36) was 184 mm^3. The “% TGI” value ([1]; 50 mg/kg PO QD x36) was 86%, the “Median Tumor Volumes Diff.” value ([1]; 50 mg/kg PO QD x36) was 191 mm^3 and the pIC50 [2] was 8.15. For the same compound, the pIC50 ([3]; Homo sapiens, PA0143F pancreatic carcinoma model) was less than 5.00, the pIC50 ([3]; PA0143F human pancreatic carcinoma organoid, 144 hrs, Colony Counts) was less than 5.00 and the pIC50 ([4]; Homo sapiens, SU60 colorectal carcinoma model, colony formation and viability assays) was greater than 6.82. For the same compound, the pIC50 ([4]; SU60 human colorectal carcinoma organoid, 144 hrs, Colony Counts) was 7.19, the pIC50 ([4]; SU60 human colorectal carcinoma organoid, 168 hrs, CTG) was 7.64 and the effect on apoptosis [5] was “induces apoptosis”.
